Source: ChEMBL document CHEMBL1142916, “Synthesis and biological activity of 2,5-diaryl-3-methylpyrimido[4,5-c]quinolin-1(2H)-one derivatives” (Bioorg Med Chem, 2007)
pIC50: −log10 of the molar value. Calls of active or inactive are those of the source. No cut-off for these calls is given here.

Key:
PC-3 = experiment: Cytotoxicity against human PC3 cells after 3 days by MTT assay; type: functional, cell-based; details: PC-3, 72 h
Bos taurus [1] = species: Bos taurus; experiment: Inhibition of bovine brain tubulin polymerization at 40 uM in presence of microtubule associated proteins
Bos taurus [2] = species: Bos taurus; experiment: Inhibition of bovine brain tubulin polymerization at 40 uM absence of microtubule associated proteins
Bos taurus [3] = species: Bos taurus; experiment: Inhibition of bovine brain tubulin polymerization at 27 uM in presence of microtubule associated proteins
Bos taurus [4] = species: Bos taurus; experiment: Inhibition of bovine brain tubulin polymerization at 27 uM in absence of microtubule associated proteins

| SMILES | pIC50 (PC-3) | also measured |
| --- | --- | --- |
| COc1ccc(-n2c(C)nc3c(-c4ccc(Cl)cc4)nc4ccccc4c3c2=O)cc1 | 5.80 | Activity (Bos taurus [1]): inactive; Activity (Bos taurus [2]): inactive |
| Cc1nc2c(-c3ccc(Br)cc3)nc3ccccc3c2c(=O)n1-c1ccccc1 | 5.66 |  |
| Cc1nc2c(-c3ccc(Cl)cc3)nc3ccccc3c2c(=O)n1-c1ccccc1Cl | 5.70 |  |
| Cc1nc2c(-c3ccc(Br)cc3)nc3ccccc3c2c(=O)n1-c1ccc(Cl)cc1 | 5.72 |  |
| COc1ccc(-n2c(C)nc3c(-c4ccc(Br)cc4)nc4ccccc4c3c2=O)cc1 | 5.60 |  |
| Cc1nc2c(-c3ccc(Br)cc3)nc3ccccc3c2c(=O)n1-c1cccc(Br)c1 | < 5.00 |  |
| Cc1ccccc1-n1c(C)nc2c(-c3ccc(Cl)cc3)nc3ccccc3c2c1=O | < 4.42 |  |
| Cc1nc2c(-c3ccc(Br)cc3)nc3ccccc3c2c(=O)n1-c1ccccc1Br | < 4.70 |  |
| Cc1nc2c(-c3ccc(Cl)cc3)nc3ccccc3c2c(=O)n1-c1ccccc1Br | < 4.38 |  |
| Cc1ccc(-n2c(C)nc3c(-c4ccc(Cl)cc4)nc4ccccc4c3c2=O)cc1 | < 4.49 |  |
| Cc1nc2c(-c3ccc(Br)cc3)nc3ccccc3c2c(=O)n1-c1ccc(Br)cc1 | 5.48 |  |
| Cc1nc2c(-c3ccc(Br)cc3)nc3ccccc3c2c(=O)n1-c1cccc(Cl)c1 | < 4.60 |  |
| Cc1nc2c(-c3ccc(Cl)cc3)nc3ccccc3c2c(=O)n1-c1ccccc1 | 5.49 |  |
| Cc1nc2c(-c3ccc(Cl)cc3)nc3ccccc3c2c(=O)n1-c1cccc(Br)c1 | 5.85 | Activity (Bos taurus [3]): inactive; Activity (Bos taurus [4]): inactive |
| Cc1nc2c(-c3ccc(Cl)cc3)nc3ccccc3c2c(=O)n1-c1ccc(F)cc1 | 5.40 |  |
| COc1ccccc1-n1c(C)nc2c(-c3ccc(Br)cc3)nc3ccccc3c2c1=O | 5.17 |  |
| Cc1nc2c(-c3ccc(Br)cc3)nc3ccccc3c2c(=O)n1-c1ccccc1Cl | < 4.55 |  |
| COc1cc2c(c(OC)c1OC)-c1ccc(OC)c(=O)cc1[C@@H](NC(C)=O)CC2 [COLCHICINE] | 7.74 |  |
| Cc1ccc(-n2c(C)nc3c(-c4ccc(Br)cc4)nc4ccccc4c3c2=O)cc1 | < 4.67 |  |
| Cc1nc2c(-c3ccc(Cl)cc3)nc3ccccc3c2c(=O)n1-c1ccc(Br)cc1 | 5.60 |  |
| Cc1nc2c(-c3ccc(Cl)cc3)nc3ccccc3c2c(=O)n1-c1cccc(Cl)c1 | < 4.59 |  |
| Cc1nc2c(-c3ccc(Br)cc3)nc3ccccc3c2c(=O)n1-c1ccc(F)cc1 | 5.26 |  |
| Cc1nc2c(-c3ccc(Cl)cc3)nc3ccccc3c2c(=O)n1-c1ccc(Cl)cc1 | < 4.55 |  |
| COc1ccccc1-n1c(C)nc2c(-c3ccc(Cl)cc3)nc3ccccc3c2c1=O | 4.98 |  |
| Cc1ccccc1-n1c(C)nc2c(-c3ccc(Br)cc3)nc3ccccc3c2c1=O | < 4.52 |  |
